For this assay, the target named is T1, human FXR (NR1H4) (Homo sapiens, UniProt Q96RI1).
T1 sequence (Q96RI1 1-486): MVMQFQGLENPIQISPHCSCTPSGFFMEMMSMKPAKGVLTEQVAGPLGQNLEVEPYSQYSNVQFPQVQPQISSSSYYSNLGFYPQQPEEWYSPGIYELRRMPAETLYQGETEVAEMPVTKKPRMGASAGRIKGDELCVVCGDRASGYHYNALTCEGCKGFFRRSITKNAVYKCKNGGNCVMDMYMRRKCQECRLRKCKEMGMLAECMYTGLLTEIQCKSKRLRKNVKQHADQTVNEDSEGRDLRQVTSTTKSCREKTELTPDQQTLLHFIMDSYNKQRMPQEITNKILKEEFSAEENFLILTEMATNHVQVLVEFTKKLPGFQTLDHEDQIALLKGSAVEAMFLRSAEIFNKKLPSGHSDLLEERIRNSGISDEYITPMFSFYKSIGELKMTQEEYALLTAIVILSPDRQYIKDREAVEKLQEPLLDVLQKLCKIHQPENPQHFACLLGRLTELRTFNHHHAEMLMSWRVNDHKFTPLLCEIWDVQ
In words: Human FXR (NR1H4) Assay: Gal4 promoter driven luciferase reporter transactivation in CHO cells (Indigo Bioscience kit IB00601). Conditions: for EC50: potency range, Human FXR (NR1H4) reporter assay in CHO cells, read-out: EC50; for Emax: CHO, efficacy normalized to CDCA set as 100%, read-out: Efficacy (%). It counts as cell-based. The source says: Human FXR (NR1H4) Assay Determination of a ligand mediated Gal4 promoter driven transactivation to quantify ligand binding mediated activation of FXR. FXR Reporter Assay kit purchased from Indigo Bioscience (Catalogue number: IB00601) to determine the potency and efficacy of compounds that can induce FXR activation. The principle application of this reporter assay system is to quantify functional activity of human FXR. The assay utilizes non-human mammalian cells, CHO (Chinese hamster ovary) cells engineered to express human NR1H4 protein (referred to as FXR). Reporter cells also incorporate the cDNA encoding beetle luciferase which catalyzes the substrates and yields photon emission. Luminescence intensity of the reaction is quantified using a plate-reading luminometer, Envision. Reporter Cells include the luciferase reporter gene functionally linked to an FXR responsive promoter. Thus, quantifying changes in luciferase expression in the treated reporter cells provides a sensitive surrogate measure of the changes in FXR activity. […] The assay is according to the manufacturer's instructions. […] Retrieve Reporter Cells from −80° C. storage. Perform a rapid thaw of the frozen cells by transferring a 10 ml volume of 37° C. cell recovery medium into the tube of frozen cells. […] Retrieve the tube of Reporter Cell Suspension from the water bath. […] Dispense 90 μl of cell suspension into each well of the 96-well Assay Plate. Transfer the plate into 37° C. incubator, allowing the cells adherent to the bottom of the well. Dilute compounds in Dilution Plate (DP), and administrate to cells at Assay Plate (AP). […] Cells were incubated for additional 22 hours before luciferase activities were measured. Thirty minutes before intending to quantify FXR activity, remove Detection Substrate and Detection Buffer from the refrigerator and place them in a low-light area so that they may equilibrate to room temperature. Remove the plate's lid and discard all media contents by ejecting it into an appropriate waste container. Gently tap the inverted plate onto a clean absorbent paper towel to remove residual droplets. Cells will remain tightly adhered to well bottoms. Add 100 μl of luciferase detection reagent to each well of the assay plate. Allow the assay plate to rest at room temperature for at least 5 minutes following the addition of LDR. Set the instrument (Envision) to perform a single 5 second “plate shake” prior to reading the first assay well. Read time may be 0.5 second (500 mSec) per well.
A general note: A reporter such as luciferase makes a cellular process visible.

Bounds are passed on as bounds.

On to `COC(=O)c1ccc(NC(=O)N2C3CCC2CC(OCc2c(-c4ccccc4OC(F)(F)F)noc2C2CC2)C3)c(F)c1` (stereo not drawn) [Example 237], for which the concentration giving a half-maximal response (EC50) is 100 to 1000 nM.
In the case of `COC(=O)c1ccc(NC(=O)N2C3CCC2CC(OCc2c(-c4c(Cl)cccc4Cl)noc2C2CC2)C3)c(OC(C)C)c1` (stereo not drawn) [Example 719], the Emax is 104% and the EC50 was in the range of 100 to 1000 nM.
In the same order, the values of `O=C(Nc1cncc(-c2ccccc2)c1)N1C2CCC1CC(OCc1c(-c3c(Cl)cccc3Cl)noc1C1CC1)C2` (stereo not drawn) [Example 835] are 223% and under 10 nM.
Take `O=C(Nc1ccc2ccccc2c1)N1C2CCC1CC(OCc1c(-c3c(Cl)cccc3Cl)noc1C1CC1)C2` (stereo not drawn) [Example 20]: the concentration for a half-maximal effect (EC50) was in the range of 10 to 100 nM.
Take `O=C(NCc1ccc(F)cc1)N1C2CCC1CC(OCc1c(-c3c(Cl)cccc3Cl)noc1C1CC1)C2` (stereo not drawn) [Example 732]: the Emax is 180% and the EC50 was under 10 nM.
For `O=C(O)c1ccnc(NC(=O)N2C3CCC2CC(OCc2c(-c4ccccc4OC(F)(F)F)noc2C2CC2)C3)c1` (stereo not drawn) [Example 770], the Emax worked out at 93% and the EC50 was over 1000 nM.
In the case of `CC(C)S(=O)(=O)NC(=O)c1cccc(NC(=O)N2C3CCC2CC(OCc2c(-c4ccccc4OC(F)(F)F)noc2C2CC2)C3)c1` (stereo not drawn) [Example 758], the Emax turned out to be 233% and the EC50 lay within 100 to 1000 nM.
With `O=C(Nc1cccc2ccccc12)N1C2CCC1CC(OCc1c(-c3c(Cl)cccc3Cl)noc1C1CC1)C2` (stereo not drawn) [Example 19], the EC50 lay in the range of 10 to 100 nM.
For the compound `O=C(c1cccc(NC(=O)N2C3CCC2CC(OCc2c(-c4c(Cl)cccc4Cl)noc2C2CC2)C3)c1)N1CCOCC1` (stereo not drawn) [Example 214], the EC50 fell in the range of 10 to 100 nM.
As to `CN1CC=C(c2cccc(NC(=O)N3C4CCC3CC(OCc3c(-c5c(Cl)cccc5Cl)noc3C3CC3)C4)c2)CC1` (stereo not drawn) [Example 715], the Emax is 123% and the EC50 lay within 10 to 100 nM.
The like results for `COC(=O)c1ccc(NC(=O)N2C3CCC2CC(OCc2c(-c4c(Cl)cccc4Cl)noc2C2CC2)C3)c(F)c1-c1ccccc1` (stereo not drawn) [Example 795] were, in that order, 44% and 10 to 100 nM.
On to `CC(C)(C)c1ccc(NC(=O)N2C3CCC2CC(OCc2c(-c4c(Cl)cccc4Cl)noc2C2CC2)C3)cc1` (stereo not drawn) [Example 697], for which the Emax amounted to 174% and the EC50 is 100 to 1000 nM.
The like results for `O=C(O)c1ccc(F)c(NC(=O)N2C3CCC2CC(OCc2c(-c4ccccc4OC(F)(F)F)noc2C2CC2)C3)c1` (stereo not drawn) [Example 748] were, in that order, 103% and 10 to 100 nM.
As for `O=C(Nc1cc(F)cc(C(F)(F)F)c1)N1C2CCC1CC(OCc1c(-c3c(Cl)cccc3Cl)noc1C1CC1)C2` (stereo not drawn) [Example 11], the EC50 is under 10 nM.
In the case of `CCOc1cc(C(=O)O)ccc1NC(=O)N1C2CCC1CC(OCc1c(-c3c(Cl)cccc3Cl)noc1C1CC1)C2` (stereo not drawn) [Example 720], the Emax came to 171% and the 50% effective concentration (EC50) was under 10 nM.
The like results for `O=C(O)c1ccc(NC(=O)N2C3CCC2CC(OCc2c(-c4c(Cl)cccc4Cl)noc2C2CC2)C3)c(F)c1` (stereo not drawn) [Example 692] were, in that order, 156% and under 10 nM.
The like results for `COc1cc(C(=O)O)c(-c2ccccc2)cc1NC(=O)N1C2CCC1CC(OCc1c(-c3c(Cl)cccc3Cl)noc1C1CC1)C2` (stereo not drawn) [Example 793] were, in that order, 99% and under 10 nM.
Regarding `CC(=O)N1CCC(c2cccc(NC(=O)N3C4CCC3CC(OCc3c(-c5c(Cl)cccc5Cl)noc3C3CC3)C4)c2)CC1` (stereo not drawn) [Example 714], the Emax turned out to be 156% and the concentration giving a half-maximal response (EC50) was in the range of 10 to 100 nM.
In the same order, the values of `COc1ccc(C(=O)O)cc1NC(=O)N1C2CCC1CC(OCc1c(-c3c(Cl)cccc3Cl)noc1C1CC1)C2` (stereo not drawn) [Example 725] are 140% and 100 to 1000 nM.
The like results for `O=C(O)c1ccc(NC(=O)N2C3CCC2CC(OCc2c(-c4c(Cl)cccc4Cl)noc2C2CC2)C3)nc1` (stereo not drawn) [Example 788] were, in that order, 31% and 10 to 100 nM.
On to `O=C(NS(=O)(=O)C1CC1)c1cccc(NC(=O)N2C3CCC2CC(OCc2c(-c4ccccc4OC(F)(F)F)noc2C2CC2)C3)c1` (stereo not drawn) [Example 264], for which the EC50 was over 1000 nM.

As usually defined, the EC50 is the midpoint of the concentration-response curve.

The values above are taken from patent US10597391B2, “Urea-containing isoxazole derivatives as FXR agonists and methods of use thereof” (Enanta Pharmaceuticals, Inc., priority 2016, dated 2020).
